According to patent publication US20210332036A1, “PYRIMIDINE AND PYRAZINE HDAC1,2 INHIBITORS” (REGENACY PHARMACEUTICALS, LLC, priority 2018, published 2021):

Columns and labels:
HDAC3 = target: T1, HDAC3 (Homo sapiens, UniProt O15379); assay: HDAC enzyme assay, HDAC3; assay type: biochemical; conditions: 17 μM substrate, 10 min preincubation
T1 construct: purchased BPS Biosciences
Protocol: (§1) Compounds for testing were diluted in DMSO to 50 fold the final concentration and a ten-point three-fold dilution series was made. The compounds were diluted in assay buffer (50 mM HEPES, pH 7.4, 100 mM KCl, 0.001% Tween-20, 0.05% BSA, 20 μM TCEP) to 6-fold their final concentration. The HDAC enzymes (purchased from BPS Biosciences) were diluted to 1.5-fold their final concentration in assay buffer. The tripeptide substrate and trypsin at 0.05 μM final concentration were diluted in assay buffer at 6-fold their final concentration. The final enzyme concentrations used in these assays were 3.3 ng/ml (HDAC1), 0.2 ng/ml (HDAC2) and 0.08 ng/ml (HDAC3). The final substrate concentrations used were 16 μM (HDAC1), 10 μM (HDAC2) and 17 μM (HDAC3).
(§2) Five μl of compounds and 20 μl of enzyme were added to wells of a black, opaque 384 well plate in duplicate. Enzyme and compound were incubated together at room temperature for 10 minutes. Five μl of substrate was added to each well, the plate was shaken for 60 seconds and placed into a Victor 2 microtiter plate reader. The development of fluorescence was monitored for 60 min and the linear rate of the reaction was calculated. The IC50 was determined using Graph Pad Prism by a four parameter curve fit.

HDAC2 = target: T2, HDAC2 (Homo sapiens, UniProt Q92769); assay: HDAC enzyme assay, HDAC2; assay type: biochemical; conditions: 10 μM substrate, 10 min preincubation
T2 construct: purchased BPS Biosciences
T2 sequence (Q92769 whole entry): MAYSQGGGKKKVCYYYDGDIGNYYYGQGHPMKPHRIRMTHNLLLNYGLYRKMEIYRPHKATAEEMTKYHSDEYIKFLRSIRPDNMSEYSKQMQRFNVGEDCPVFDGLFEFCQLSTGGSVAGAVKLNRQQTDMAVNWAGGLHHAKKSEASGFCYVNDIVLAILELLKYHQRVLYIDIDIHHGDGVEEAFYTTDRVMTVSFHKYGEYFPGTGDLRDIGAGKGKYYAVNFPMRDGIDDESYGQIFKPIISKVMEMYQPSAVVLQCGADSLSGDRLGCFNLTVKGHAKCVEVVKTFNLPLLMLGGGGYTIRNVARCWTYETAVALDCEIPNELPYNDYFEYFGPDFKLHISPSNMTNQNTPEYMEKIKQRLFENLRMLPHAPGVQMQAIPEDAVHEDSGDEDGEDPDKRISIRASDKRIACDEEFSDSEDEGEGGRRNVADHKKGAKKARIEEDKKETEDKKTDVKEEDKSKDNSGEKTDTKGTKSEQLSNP
Protocol: as §1, §2

HDAC1 = target: T3, HDAC1 (Homo sapiens, UniProt Q13547); assay: HDAC enzyme assay, HDAC1; assay type: biochemical; conditions: 16 μM substrate, 10 min preincubation
T3 construct: purchased BPS Biosciences
T3 sequence (Q13547 whole entry): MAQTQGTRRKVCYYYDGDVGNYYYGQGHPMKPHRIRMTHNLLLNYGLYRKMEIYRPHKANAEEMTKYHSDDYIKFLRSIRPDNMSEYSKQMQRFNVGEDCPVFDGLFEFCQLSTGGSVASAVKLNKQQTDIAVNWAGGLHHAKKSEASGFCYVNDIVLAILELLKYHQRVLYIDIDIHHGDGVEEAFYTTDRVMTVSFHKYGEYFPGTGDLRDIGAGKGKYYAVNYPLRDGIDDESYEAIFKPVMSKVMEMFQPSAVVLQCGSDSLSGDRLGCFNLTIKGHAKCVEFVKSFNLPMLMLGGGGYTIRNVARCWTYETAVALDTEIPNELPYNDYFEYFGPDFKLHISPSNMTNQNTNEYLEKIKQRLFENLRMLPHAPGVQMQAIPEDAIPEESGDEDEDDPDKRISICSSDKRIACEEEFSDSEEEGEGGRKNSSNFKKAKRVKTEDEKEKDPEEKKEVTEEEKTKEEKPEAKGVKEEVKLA
Protocol: as §1, §2

[1] = PK parameters, IP dosing (plasma and brain exposure); assay type: in vivo; design: AUC(0-t): concentration or dose not given beside the values; conditions: Mouse IP; for Kp: brain/plasma, read-out: Brain AUC/Plasma AUC
[2] = PK parameters, IV dosing (plasma and brain exposure); assay type: in vivo; design: AUC(0-t): concentration or dose not given beside the values; conditions: Mouse IV; for Kp: brain/plasma, read-out: Brain AUC/Plasma AUC
Protocol: [The procedure below names another organism; the source lists this organism under the same test.] Male SD rats were fasted overnight. Compounds of the invention were dissolved in dimethyl acetamide at 10 times the final concentration, then Solutol HS 15 (BASF) was added to a final concentration of 10%. Finally 80% saline was added and vortexed to achieve a clear solution. For the IV dosing three animals were injected via the foot dorsal vein with 1 mg/kg compound. For the PO dosing 5 mg/kg of compound was delivered by oral gavage. Blood was collected via the tail vein into K2EDTA tubes at 5 minutes, 15 minutes, 30 minutes, 1 hour, 2 hours, 4 hours, 8 hours and 24 hours after dosing. The blood was centrifuged at 2000 g for 5 minutes at 4° C. to obtain plasma. The plasma was extracted with acetonitrile and the level of compound was analyzed by LC/MS/MS. The level of compound in plasma was calculated from a standard curve in rat plasma. The IV clearance (L/h/kg) and area under the curve (h*ng/mL) were calculated using WinNonLin software. The dose adjusted area under the curve for the IV and oral dosing were used to calculate the oral bioavailability.
Pharmacokinetic properties were assessed in a rat cassette dosing experiment. The IV clearance (IV Clr.) is in units of L/hr/kg. The oral maximum plasma concentration (PO Cmax) is in units of ng/ml. The oral plasma half-life (PO T1/2) is in units of hours. The oral area under the curve (PO AUC) is in units of hours*ng/ml. The fraction absorbed by the oral route (F %) is a percentage of the oral area under the curve to the IV area under the curve, dose adjusted.

[3] = brain, read-out: AUC(last) Brain
[4] = plasma, read-out: AUC(last) Plasma

T1 sequence (O15379 whole entry): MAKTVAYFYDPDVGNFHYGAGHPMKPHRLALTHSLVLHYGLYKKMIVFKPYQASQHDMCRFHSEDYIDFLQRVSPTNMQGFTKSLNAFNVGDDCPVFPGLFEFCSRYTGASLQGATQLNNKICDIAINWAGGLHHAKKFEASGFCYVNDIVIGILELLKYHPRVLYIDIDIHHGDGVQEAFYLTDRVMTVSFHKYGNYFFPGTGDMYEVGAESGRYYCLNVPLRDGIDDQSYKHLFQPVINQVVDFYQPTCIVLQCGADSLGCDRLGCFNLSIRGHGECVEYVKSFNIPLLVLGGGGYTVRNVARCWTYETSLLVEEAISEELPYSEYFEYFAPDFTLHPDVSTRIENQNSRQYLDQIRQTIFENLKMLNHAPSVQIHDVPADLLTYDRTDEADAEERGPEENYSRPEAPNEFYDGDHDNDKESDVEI
T1 sequence (Q9Y618 395-489 partner limits assumed): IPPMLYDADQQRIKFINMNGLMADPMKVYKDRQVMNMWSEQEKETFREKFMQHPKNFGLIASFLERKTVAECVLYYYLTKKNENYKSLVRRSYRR

Row | Compound | IC50 (HDAC3) | IC50 (HDAC2) | IC50 (HDAC1) | AUC(0-t) [1, 3] | AUC(0-t) [1, 4] | Kp [1] | AUC(0-t) [2, 3] | AUC(0-t) [2, 4] | Kp [2]
1 | Cc1ccc(-c2ccc(N)c(NC(=O)c3ccc(N4CCNCC4)cn3)c2)cc1 [Compound 001] | 480 to 490 nM | 30 to 40 nM | 10 to 20 nM | 64700 to 64800 ng·h/mL | 6700 to 6800 ng·h/mL | 1 to 5 | 19000 to 20000 ng·h/mL | 1400 to 1500 ng·h/mL | 10 to 15
2 | Nc1cc(F)c(-c2cccs2)cc1NC(=O)c1ccc(N2CCNCC2)cn1 [Compound 002] | 200 to 210 nM | 10 to 20 nM | 1 to 10 nM | 23100 to 23200 ng·h/mL | 2400 to 2500 ng·h/mL | 5 to 10 | 9000 to 10000 ng·h/mL | 400 to 500 ng·h/mL | 20 to 25
3 | Nc1ccc(-c2ccccc2)cc1NC(=O)c1ccc(N2CCNCC2)nn1 [Compound 003] | 170 to 180 nM | 20 to 30 nM | 1 to 10 nM | 7900 to 8000 ng·h/mL | 4700 to 4800 ng·h/mL | 1 to 5 | 3000 to 4000 ng·h/mL | 1000 to 1100 ng·h/mL | 1 to 5
4 | COCCOc1ccc(C(=O)Nc2cc(-c3cccs3)ccc2N)nc1 [Compound 004] | 440 to 450 nM | 50 to 60 nM | 1 to 10 nM | 2100 to 2200 ng·h/mL | 2300 to 2400 ng·h/mL | 0.1 to 1.5 | 500 to 600 ng·h/mL | 700 to 800 ng·h/mL | 0.1 to 1.5
5 | Nc1ccc(-c2cccs2)cc1NC(=O)c1ccc(OCCO)cn1 [Compound 005] | 110 to 120 nM | 10 to 20 nM | 1 to 10 nM | 2000 to 2100 ng·h/mL | 2300 to 2400 ng·h/mL | 0.1 to 1.5 | 600 to 700 ng·h/mL | 600 to 700 ng·h/mL | 0.8 to 1.2
6 | CN1CCN(c2cnc(C(=O)Nc3cc(-c4cccs4)ccc3N)nc2)CC1 [Compound 006] | 80 to 90 nM | 40 to 50 nM | 1 to 10 nM | 700 to 800 ng·h/mL | 800 to 900 ng·h/mL | 0.1 to 1.5 | 700 to 800 ng·h/mL | 200 to 300 ng·h/mL | 2 to 4
7 | Nc1ccc(-c2cccs2)cc1NC(=O)c1ncc(N2CCNCC2)cn1 [Compound 007] | 170 to 180 nM | 90 to 100 nM | 10 to 20 nM | 900 to 1000 ng·h/mL | 1800 to 1900 ng·h/mL | 0.1 to 1.5 | 30 to 40 ng·h/mL | 400 to 500 ng·h/mL | 0.01 to 0.1
8 | COCCOc1ccc(C(=O)Nc2cc(-c3cccs3)ccc2N)nn1 [Compound 008] | 260 to 270 nM | 20 to 30 nM | 1 to 10 nM | 1300 to 1400 ng·h/mL | 2900 to 3000 ng·h/mL | 0.1 to 1.5 | 200 to 300 ng·h/mL | 600 to 700 ng·h/mL | 0.1 to 1.5
9 | Nc1ccc(-c2ccccc2)cc1NC(=O)c1ncc(N2CCNCC2)cn1 [Compound 009] | 200 to 210 nM | 70 to 80 nM | 10 to 20 nM | 200 to 300 ng·h/mL | 1700 to 1800 ng·h/mL | 0.1 to 1.5 | 300 to 400 ng·h/mL | 300 to 400 ng·h/mL | 0.8 to 1.5
10 | CC(=O)N1CCN(c2ccc(C(=O)Nc3cc(-c4cccs4)ccc3N)nc2)CC1 [Compound 010] | 120 to 130 nM | 10 to 20 nM | 1 to 10 nM | 200 to 300 ng·h/mL | 2000 to 2100 ng·h/mL | 0.1 to 1.5 | 200 to 300 ng·h/mL | 500 to 600 ng·h/mL | 0.1 to 1.5
11 | CNS(=O)(=O)Oc1ccc(-c2ccc(N)c(NC(=O)c3ccc(N4CCN(C)CC4)cn3)c2)cc1 [Compound 011] | > 2000 nM | 10 to 20 nM | 1 to 10 nM | < 100 ng·h/mL | 900 to 1000 ng·h/mL | 0.1 to 1.5 | 100 to 200 ng·h/mL | 200 to 300 ng·h/mL | 0.1 to 1.5
12 | Nc1ccc(-c2cncs2)cc1NC(=O)c1ccc(N2CCNCC2)cn1 [Compound 012] | 20 to 30 nM | 10 to 20 nM | 1 to 10 nM | 300 to 400 ng·h/mL | 4300 to 4400 ng·h/mL | 0.01 to 0.1 | 400 to 500 ng·h/mL | 800 to 900 ng·h/mL | 0.1 to 1.5
13 | Nc1ccc(-c2cccs2)cc1NC(=O)c1ccc(OC[C@H](O)CO)cn1 [Compound 013] | 140 to 150 nM | 20 to 30 nM | 1 to 10 nM | 300 to 400 ng·h/mL | 5900 to 6000 ng·h/mL | 0.01 to 0.1 | 200 to 300 ng·h/mL | 1100 to 1200 ng·h/mL | 0.1 to 0.3
14 | Nc1ccc(-c2cccs2)cc1NC(=O)c1ccc(NC2CCN(C(=O)N3CCNCC3)CC2)cn1 [Compound 014] | 50 to 60 nM | 10 to 20 nM | 1 to 10 nM | 200 to 300 ng·h/mL | 7400 to 7500 ng·h/mL | 0.01 to 0.1 | 100 to 200 ng·h/mL | 1500 to 1600 ng·h/mL | 0.05 to 0.1
15 | Nc1ccc(-c2ccoc2)cc1NC(=O)c1ncc(N2CCNCC2)cn1 [Compound 015] | 110 to 120 nM | 30 to 40 nM | 10 to 20 nM | < 100 ng·h/mL | 3200 to 3300 ng·h/mL | 0.01 to 0.1 | 100 to 200 ng·h/mL | 500 to 600 ng·h/mL | 0.1 to 1.5
16 | Nc1ccc(-c2ccccc2)cc1NC(=O)c1ncc(NCCOCc2cccnc2)cn1 [Compound 016] | 230 to 240 nM | 30 to 40 nM | 1 to 10 nM | < 100 ng·h/mL | 900 to 1000 ng·h/mL | 0.001 to 0.01 | < 100 ng·h/mL | 300 to 400 ng·h/mL | 0.01 to 0.1
17 | Nc1ccc(-c2cccs2)cc1NC(=O)c1cnc(N2CCNCC2)cn1 [Compound 017] | 30 to 40 nM | 5 to 15 nM | 1 to 10 nM | 25000 to 25300 ng·h/mL | 2700 to 2800 ng·h/mL |  | 9000 to 10000 ng·h/mL | 600 to 700 ng·h/mL | 
